Our source for the IC50 values is patent US12246008B2, “4-amino or 4-alkoxy-substituted aryl sulfonamide compounds with selective activity in voltage-gated sodium channels” (Merck Sharp & Dohme LLC, priority 2018, dated 2025).

Common to all, as to experiment: Qube automated patch-clamp assay, inhibition of sodium current
Type in all cases: cell-based
A general note: Patch clamp records ionic current or voltage across a cell membrane.

The target of assay [1] is T1, human Nav1.7 channels stably expressed in HEK 293 cells (Homo sapiens, UniProt Q15858).
T1 construct: expressed in transfected cells; host or cells: HEK 293
The following applies: max concentration tested 33750 nM, read-out: NaV1.7 (nM). As for the experimental part:
(§1) Qube™ Experimental Procedure:
(§2) Compounds were tested on human Nav1.7 and Nav1.6 channels stably expressed in HEK 293 cells. […] Cells were sealed on a planar substrate using the multihole technology. Cells expressing human Nav1.7 channels were held at −75 mV or −80 mV. Cells expressing human Nav1.6 channels were held at −65 mV. A train of 6 consecutive test pulses to −10 mV, preceded by 8 s prepulses to −115 mV, was applied at a frequency of 0.1 Hz before and after compound addition. Cells in each Qchip well were incubated in compound for 5 minutes before measuring inhibition. Peak currents were measured in control conditions and after compound addition. The following recording solutions were used (mM). External Nav1.6: 150 NaCl, 2 CaCl2), 5 KCl, 1 Mg Cl2, 10 HEPES, 12 Dextrose; external Nav1.7: 40 NaCl, 120 NMDG, 1 KCl, 0.5 MgCl2, 5 HEPES, 2.7 CaCl2); internal: 120 CsF, 30 CsCl, 10 EGTA, 5 HEPES, 5 NaF, 2 MgCl2. Compounds were prepared as 10 mM stock solutions in DMSO. 10 point compound titrations were generated using the Echo acoustic liquid handling instrument and glass coated 384 well plates. The final DMSO concentration in the assay was 0.3%. For all electrophysiology experiments, offline analysis was used to determine percent inhibition as a function of drug concentration. IC50 values were determined by fitting to the Hill equation.
(§3) The various compounds in EXAMPLES 1 through 43 and TABLE 2 exemplified above were assayed for activity and selectivity using the foregoing Qube® technique. The results are reported in TABLE 3 in a format expressing the identification of the compound with reference EXAMPLE followed by the observed potency in nM for NaV1.7, NaV1.6 and NaV1.5. NA signifies not applicable and the max concentration tested is 33750 nM.

Assay [2] concerns the target T2, human Nav1.6 channels stably expressed in HEK 293 cells (Homo sapiens, UniProt Q9UQD0).
T2 construct: expressed in transfected cells; host or cells: HEK 293
The following applies: holding potential −65 mV; max concentration tested 33750 nM. The protocol:
as §1, §2, §3

The next assay concerns the target NaV1.5 (Homo sapiens, UniProt Q14524). The following applies: holding potential −80 mV; max concentration tested 33750 nM. As for the experimental part:
as §2, §3

[3] abbreviates: holding potential −75 mV, −75 mV.
The mark [4] stands for this setting: holding potential −80 mV, −80 mV.

Each structure is given as a SMILES string. Like-named read-outs stand apart in the source and are kept apart here. Where only a bound is given, the exact number is not on record here.

T2 sequence (Q9UQD0 whole entry): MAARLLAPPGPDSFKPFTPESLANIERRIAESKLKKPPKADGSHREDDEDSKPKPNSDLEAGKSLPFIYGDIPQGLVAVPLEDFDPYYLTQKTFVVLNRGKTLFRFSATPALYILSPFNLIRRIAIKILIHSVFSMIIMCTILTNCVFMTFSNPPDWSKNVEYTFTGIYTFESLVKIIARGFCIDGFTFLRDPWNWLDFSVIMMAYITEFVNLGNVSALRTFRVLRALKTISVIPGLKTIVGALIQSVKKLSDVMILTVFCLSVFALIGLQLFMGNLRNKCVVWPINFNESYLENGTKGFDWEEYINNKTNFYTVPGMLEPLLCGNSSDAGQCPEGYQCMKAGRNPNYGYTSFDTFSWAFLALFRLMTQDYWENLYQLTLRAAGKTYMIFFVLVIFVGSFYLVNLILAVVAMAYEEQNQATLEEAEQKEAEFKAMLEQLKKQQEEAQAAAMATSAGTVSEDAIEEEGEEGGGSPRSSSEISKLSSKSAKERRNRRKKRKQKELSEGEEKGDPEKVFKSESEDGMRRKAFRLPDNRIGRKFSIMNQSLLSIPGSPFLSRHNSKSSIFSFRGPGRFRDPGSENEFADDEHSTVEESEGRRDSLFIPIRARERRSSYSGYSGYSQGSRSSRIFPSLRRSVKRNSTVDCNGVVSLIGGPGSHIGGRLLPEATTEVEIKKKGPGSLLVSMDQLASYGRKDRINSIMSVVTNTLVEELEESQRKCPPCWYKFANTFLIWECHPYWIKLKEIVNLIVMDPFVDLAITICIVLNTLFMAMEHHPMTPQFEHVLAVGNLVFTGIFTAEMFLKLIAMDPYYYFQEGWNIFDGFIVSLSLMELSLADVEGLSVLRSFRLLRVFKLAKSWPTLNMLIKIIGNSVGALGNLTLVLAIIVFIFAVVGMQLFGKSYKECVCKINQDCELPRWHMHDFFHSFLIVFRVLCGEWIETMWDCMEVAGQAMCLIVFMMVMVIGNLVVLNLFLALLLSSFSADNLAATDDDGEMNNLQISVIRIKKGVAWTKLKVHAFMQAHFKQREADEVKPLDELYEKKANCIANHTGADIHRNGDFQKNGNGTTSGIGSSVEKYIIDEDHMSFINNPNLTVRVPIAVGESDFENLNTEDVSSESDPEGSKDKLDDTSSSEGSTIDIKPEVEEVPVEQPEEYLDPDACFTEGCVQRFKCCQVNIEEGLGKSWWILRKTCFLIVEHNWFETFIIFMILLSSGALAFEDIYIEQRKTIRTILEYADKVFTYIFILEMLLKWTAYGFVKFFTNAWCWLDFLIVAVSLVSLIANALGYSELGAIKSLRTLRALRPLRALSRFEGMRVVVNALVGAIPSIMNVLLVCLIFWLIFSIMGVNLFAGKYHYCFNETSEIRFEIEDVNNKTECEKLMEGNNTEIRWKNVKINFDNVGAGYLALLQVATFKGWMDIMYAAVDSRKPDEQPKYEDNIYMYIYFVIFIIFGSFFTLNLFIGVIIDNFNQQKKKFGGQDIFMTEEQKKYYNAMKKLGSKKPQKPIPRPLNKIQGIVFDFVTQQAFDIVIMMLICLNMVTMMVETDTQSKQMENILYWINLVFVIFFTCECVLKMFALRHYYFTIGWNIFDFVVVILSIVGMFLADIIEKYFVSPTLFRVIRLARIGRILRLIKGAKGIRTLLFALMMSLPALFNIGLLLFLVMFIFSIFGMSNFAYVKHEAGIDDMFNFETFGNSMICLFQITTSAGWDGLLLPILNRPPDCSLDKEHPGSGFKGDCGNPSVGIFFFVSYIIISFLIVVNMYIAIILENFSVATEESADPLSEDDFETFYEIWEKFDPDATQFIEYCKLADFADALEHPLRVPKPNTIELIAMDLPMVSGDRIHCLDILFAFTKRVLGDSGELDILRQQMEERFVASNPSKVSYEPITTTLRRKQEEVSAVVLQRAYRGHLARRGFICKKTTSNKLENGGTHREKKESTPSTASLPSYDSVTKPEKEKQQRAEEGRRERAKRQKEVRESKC
Chain of NaV1.5 (Q14524 whole entry): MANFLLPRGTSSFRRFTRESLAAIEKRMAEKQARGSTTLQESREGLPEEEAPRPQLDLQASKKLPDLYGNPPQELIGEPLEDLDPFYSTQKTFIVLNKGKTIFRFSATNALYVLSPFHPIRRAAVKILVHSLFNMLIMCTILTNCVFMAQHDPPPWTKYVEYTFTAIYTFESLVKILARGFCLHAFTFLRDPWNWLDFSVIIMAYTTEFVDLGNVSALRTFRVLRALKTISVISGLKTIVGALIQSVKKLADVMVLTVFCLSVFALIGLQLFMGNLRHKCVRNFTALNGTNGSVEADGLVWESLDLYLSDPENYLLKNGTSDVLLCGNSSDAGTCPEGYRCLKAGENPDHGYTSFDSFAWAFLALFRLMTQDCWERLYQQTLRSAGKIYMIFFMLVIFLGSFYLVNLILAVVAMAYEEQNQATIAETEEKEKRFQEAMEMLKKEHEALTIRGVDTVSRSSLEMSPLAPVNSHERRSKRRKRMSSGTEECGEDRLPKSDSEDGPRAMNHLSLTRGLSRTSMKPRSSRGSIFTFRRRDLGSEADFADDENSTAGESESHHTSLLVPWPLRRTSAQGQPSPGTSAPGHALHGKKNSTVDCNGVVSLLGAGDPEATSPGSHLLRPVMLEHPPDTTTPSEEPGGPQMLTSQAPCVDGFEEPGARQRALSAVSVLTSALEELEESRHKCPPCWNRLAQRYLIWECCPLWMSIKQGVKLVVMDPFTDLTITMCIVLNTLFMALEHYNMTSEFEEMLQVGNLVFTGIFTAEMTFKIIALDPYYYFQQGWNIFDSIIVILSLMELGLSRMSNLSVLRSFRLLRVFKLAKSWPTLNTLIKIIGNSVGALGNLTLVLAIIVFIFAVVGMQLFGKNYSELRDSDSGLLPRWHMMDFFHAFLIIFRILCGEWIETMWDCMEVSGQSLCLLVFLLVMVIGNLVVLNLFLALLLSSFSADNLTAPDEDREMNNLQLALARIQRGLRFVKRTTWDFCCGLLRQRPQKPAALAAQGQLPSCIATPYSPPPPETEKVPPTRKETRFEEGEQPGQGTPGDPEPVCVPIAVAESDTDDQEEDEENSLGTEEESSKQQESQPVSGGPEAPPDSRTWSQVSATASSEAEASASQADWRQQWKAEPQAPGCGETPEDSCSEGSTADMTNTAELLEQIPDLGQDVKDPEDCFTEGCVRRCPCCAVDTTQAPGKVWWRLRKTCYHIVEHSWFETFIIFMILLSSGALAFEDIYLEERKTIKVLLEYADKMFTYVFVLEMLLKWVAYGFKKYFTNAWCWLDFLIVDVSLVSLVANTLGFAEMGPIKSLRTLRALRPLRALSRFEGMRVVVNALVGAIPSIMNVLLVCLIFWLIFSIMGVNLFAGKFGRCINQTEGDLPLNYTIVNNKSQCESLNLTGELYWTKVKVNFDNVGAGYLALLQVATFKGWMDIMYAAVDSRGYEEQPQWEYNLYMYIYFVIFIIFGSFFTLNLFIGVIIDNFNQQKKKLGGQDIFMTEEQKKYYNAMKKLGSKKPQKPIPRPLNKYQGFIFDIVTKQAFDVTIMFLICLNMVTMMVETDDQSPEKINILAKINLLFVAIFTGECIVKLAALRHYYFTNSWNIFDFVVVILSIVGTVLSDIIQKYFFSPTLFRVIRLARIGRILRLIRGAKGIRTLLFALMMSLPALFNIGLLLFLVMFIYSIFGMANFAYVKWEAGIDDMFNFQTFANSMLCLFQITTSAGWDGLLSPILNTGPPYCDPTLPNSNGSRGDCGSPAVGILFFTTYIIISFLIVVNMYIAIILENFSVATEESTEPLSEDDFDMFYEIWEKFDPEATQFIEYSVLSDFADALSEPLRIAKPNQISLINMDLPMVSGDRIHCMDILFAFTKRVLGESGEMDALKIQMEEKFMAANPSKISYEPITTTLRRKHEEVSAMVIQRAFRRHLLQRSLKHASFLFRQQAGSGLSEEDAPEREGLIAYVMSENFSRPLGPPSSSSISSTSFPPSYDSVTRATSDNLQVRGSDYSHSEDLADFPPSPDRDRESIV

Regarding `Cc1cc(NC[C@H](CC(C)(C)CCN)[C@@H](C)N)c(C#N)cc1S(=O)(=O)Nc1ncns1` [Example 68], the IC50 was 37 nM in assay [1] (setting [3]), 10100 nM in assay [2] and over 33800 nM at NaV1.5.
Take `C[C@@H](N)C(CNc1cc(F)c(S(=O)(=O)Nc2ncns2)cc1F)CC1CCCCC1CCN` (single isomer, unassigned) [Example 62]: the IC50 in assay [1] (setting [4]) was 56 nM; in assay [2], over 33800 nM; on NaV1.5 it was over 33800 nM.
With `C[C@@H](N)C(CNc1cc(F)c(S(=O)(=O)Nc2ncns2)cc1F)C[C@@]1(C)CCC[C@@H]1CN` (single isomer, unassigned) [Example 97], the IC50 is 7 nM in assay [1] (setting [3]), 28 nM in assay [1] (setting [4]), over 33800 nM in assay [2] and over 33800 nM at NaV1.5.
On to `CC(C)NCC(CNc1cc(F)c(S(=O)(=O)Nc2ncns2)cc1Cl)[C@@H](C)N` (single isomer, unassigned) [Example 36], for which the IC50 in assay [1] (setting [3]) was 82 nM; in assay [2], over 33800 nM; against NaV1.5, over 33800 nM.
With `C[C@@H](N)C(CNc1cc(F)c(S(=O)(=O)Nc2ncns2)cc1F)CC1CCCC1CN` (single isomer, unassigned) [Example 46], the results for the IC50 (in assay [1] (setting [4]); in assay [2]; on NaV1.5) were 57 nM, over 33800 nM and over 33800 nM, respectively.
For the compound `CC(C)N(CC(CNc1cc(F)c(S(=O)(=O)Nc2ncns2)cc1F)[C@@H](C)N)C[C@@H](C)N` (single isomer, unassigned) [Example 38], the values for the IC50 (in assay [1] (setting [3]); in assay [2]; at NaV1.5) were 109 nM, over 33800 nM and over 33800 nM, respectively.
`C[C@@H](N)[C@H](CNc1cc(F)c(S(=O)(=O)Nc2ccncn2)cc1Cl)CC(C)(C)CCN` [Example 12, 4-(((S)-6-amino-2-((R)-1-aminoethyl)-4,4-dimethylhexyl)amino)-5-chloro-2-fluoro-N-(pyrimidin-4-yl)benzenesulfonamide]: the IC50 in assay [1] (setting [3]) was 133 nM; in assay [2], over 33800 nM; against NaV1.5 it was over 33800 nM.
Turning to `C[C@@H](N)C(CNc1cc(F)c(S(=O)(=O)Nc2ncns2)cc1F)CC1CCCC12CNC2` (single isomer, unassigned) [Example 25], the IC50 in assay [1] (setting [4]) is 83 nM; in assay [2] it was over 33800 nM; on NaV1.5, over 33800 nM.
Take `C[C@@H](N)[C@H](CNc1ccc(S(=O)(=O)Nc2ncns2)c(F)c1F)CC1(CCN)CCC1` [Example 100]: the values for the IC50 (in assay [1] (setting [4]); in assay [2]; at NaV1.5) were 52 nM, over 33800 nM and over 33800 nM, respectively.
Regarding `C[C@@H](N)[C@H](CNc1ccc(S(=O)(=O)Nc2ncns2)c(F)c1)CC(CCN)C1CC1` (single isomer, unassigned) [Example 19], the IC50 in assay [1] (setting [3]) was 31 nM; in assay [2], over 33800 nM; against NaV1.5, over 33800 nM.
For `CC(C)N(CC(CNc1cc(F)c(S(=O)(=O)Nc2ncns2)cc1F)[C@@H](C)N)C[C@@H](C)N` (single isomer, unassigned) [Example 39], the values for the IC50 (in assay [1] (setting [4]); in assay [2]; at NaV1.5) were 210 nM, over 33800 nM and over 33800 nM, respectively.
As for `CCC(N)C[C@@H](CNc1cc(F)c(S(=O)(=O)Nc2ncns2)cc1OC)[C@@H](C)N` (stereo partly shown) [Example 83], the IC50 in assay [1] (setting [3]) is 48 nM; in assay [2] it was over 33800 nM; at NaV1.5 it was over 33800 nM.
Take `CC[C@@H](N)C(CNc1cc(F)c(S(=O)(=O)Nc2ncns2)c(F)c1F)CC1(CCN)CCC1` (single isomer, unassigned) [Example 22]: the results for the IC50 (in assay [1] (setting [4]); in assay [2]; against NaV1.5) were 26 nM, 12100 nM and over 33800 nM, respectively.
As for `CCC(CN)CC(CNc1cc(F)c(S(=O)(=O)Nc2ncns2)cc1F)[C@@H](C)N` (single isomer, unassigned) [Example 93], the IC50 in assay [1] (setting [3]) is 16 nM; in assay [2], over 33800 nM; against NaV1.5, over 33800 nM.
In the case of `CC(C)(CCN)C[C@@H](CNc1cc(F)c(S(=O)(=O)Nc2ncns2)cc1F)[C@H](N)C1CC1` [Example 28, 4-(((S)-6-amino-2-((R)-amino(cyclopropyl)methyl)-4,4-dimethylhexyl)amino)-2,5-difluoro-N-(1,2,4-thiadiazol-5-yl)benzenesulfonamide], the IC50 in assay [1] (setting [3]) was 34 nM; in assay [2], over 33800 nM; against NaV1.5, over 33800 nM.
In the case of `C[C@@H](N)C(CNc1cc(F)c(S(=O)(=O)Nc2ncns2)cc1F)C(N)C1CCC1` (single isomer, unassigned) [Example 34], the IC50 in assay [1] (setting [3]) is 77 nM; in assay [2] it was over 33800 nM; against NaV1.5, over 33800 nM.
Turning to `C[C@@H](N)C(CNc1cc(F)c(S(=O)(=O)Nc2ncns2)cc1F)CC1CC2(CC2)CN1` (single isomer, unassigned) [Example 72], the values for the IC50 (in assay [1] (setting [4]); in assay [2]; at NaV1.5) were 229 nM, over 33800 nM and over 33800 nM, respectively.
As to `CC(C)(CCN)C[C@@H](CNc1cc(F)c(S(=O)(=O)Nc2ncns2)cc1Cl)[C@H](N)CC1CC1` [Example 29, 4-(((S)-6-amino-2-((R)-1-amino-2-cyclopropylethyl)-4,4-dimethylhexyl)amino)-5-chloro-2-fluoro-N-(1,2,4-thiadiazol-5-yl)benzenesulfonamide bis(2,2,2-trifluoroacetate)], the IC50 is 95 nM in assay [1] (setting [3]), over 33800 nM in assay [2] and over 33800 nM at NaV1.5.
`Cc1cc(NC[C@H](CC(C)(C)CCN)[C@@H](C)N)c(Cl)cc1S(=O)(=O)Nc1ncns1` [Example 32, 4-(((S)-6-amino-2-((R)-1-aminoethyl)-4,4-dimethylhexyl)amino)-5-chloro-2-methyl-N-(1,2,4-thiadiazol-5-yl)benzenesulfonamide]: the IC50 in assay [1] (setting [3]) is 19 nM; in assay [2] it was over 33800 nM; at NaV1.5, 20700 nM.
With `CC(C)C(N)CC(CNc1cc(F)c(S(=O)(=O)Nc2ncns2)cc1Br)[C@@H](C)N` (single isomer, unassigned) [Example 109], the IC50 came to 3 nM in assay [1] (setting [3]), 697 nM in assay [2] and 15600 nM on NaV1.5.
